ChEMBL document CHEMBL6153020, “Identification of Isoliensinine as a Ferroptosis Suppressor with Iron-Chelating Activity” (J Nat Prod, 2025)
Active and inactive are the calls of the source. The rule behind the calls is not given here.

How the values were obtained:
HT-1080 [1] = assay: Anti-ferroptosis activity against IKE-induced ferroptosis in human HT-1080 cells assessed as increase in cell viability at 1 to 50 uM incubated for 24 hrs by cell counting kit 8 method; type: functional, cell-based; conditions: dose 1-50 µM
HT-1080 [2] = assay: Anti-ferroptosis activity against RSL3-induced ferroptosis in human HT-1080 cells assessed as increase in cell viability at 50 uM incubated for 24 hrs by cell counting kit 8 method; type: functional, cell-based
HT-1080 [3] = assay: Anti-ferroptosis activity against RSL3-induced ferroptosis in human HT-1080 cells assessed as protection against cell death at 10 uM incubated for 24 hrs by SYTOX Green staining based light microscopy analysis; type: functional
HT-1080 [4] = assay: Anti-ferroptosis activity against IKE-induced ferroptosis in human HT-1080 cells assessed as effect on GSH/GSSG ratio at 5 uM; type: functional, cell-based
HT-1080 [5] = assay: Anti-ferroptosis activity against FeCl3/8HQ-induced ferroptosis in human HT-1080 cells assessed as increase in cell viability at 1 to 50 uM incubated for 24 hrs by cell counting kit 8 method; type: functional, cell-based; conditions: dose 1-50 µM
[6] = Antioxidant activity assessed as ABTS radical scavenging activity at 5 uM by ABTS method; type: functional
HT-1080 [7] = assay: Anti-ferroptosis activity against RSL3-induced ferroptosis in human HT-1080 cells assessed as reduction in ROS level by DCFH-DA dye based analysis; type: functional, cell-based
HT-1080 [8] = assay: Anti-ferroptosis activity against RSL3-induced ferroptosis in human HT-1080 cells assessed as reduction in MDA level; type: functional, cell-based
HT-1080 [9] = assay: Anti-ferroptosis activity against FINO2-induced ferroptosis in human HT-1080 cells assessed as increase in cell viability at 1 to 50 uM incubated for 24 hrs by cell counting kit 8 method; type: functional, cell-based; conditions: dose 1-50 µM
HT-1080 [10] = assay: Anti-ferroptosis activity against IKE-induced ferroptosis in human HT-1080 cells assessed as increase in cell viability at 10 uM incubated for 24 hrs by SYTOX Green staining based light microscopy analysis; type: functional
HT-1080 [11] = assay: Anti-ferroptosis activity against RSL3-induced ferroptosis in human HT-1080 cells assessed as increase in cell viability at 10 uM incubated overnight in the presence of ML385 by cell counting kit 8 method; type: functional, cell-based
HT-1080 [12] = assay: Anti-ferroptosis activity against FINO2-induced ferroptosis in human HT-1080 cells assessed as decrease in cell death at 5 uM incubated for 24 hrs by SYTOX Green staining based light microscopy analysis; type: functional
HT-1080 [13] = assay: Anti-ferroptosis activity against IKE-induced ferroptosis in human HT-1080 cells assessed as inhibition of lipid peroxidation level at 5 uM by BODIPY 581/591 C11 dye based flow cytometry analysis; type: functional, cell-based
HT-1080 [14] = assay: Anti-ferroptosis activity against RSL3-induced ferroptosis in human HT-1080 cells assessed as reduction in GPX4 level at 5 uM by Western blot analysis; type: functional, cell-based
HT-1080 [15] = assay: Anti-ferroptosis activity against RSL3-induced ferroptosis in human HT-1080 cells assessed as increase in cell viability at 10 uM incubated for 24 hrs by CCK-8 assay; type: functional, cell-based
HT-1080 [16] = assay: Anti-ferroptosis activity against RSL3-induced ferroptosis in human HT-1080 cells assessed as upregulation of PTGS2 mRNA expression by qPCR analysis; type: functional, cell-based
HT-1080 [17] = assay: Anti-ferroptosis activity against IKE-induced ferroptosis in human HT-1080 cells assessed as effect on GSH level at 5 uM; type: functional, cell-based
HT-1080 [18] = assay: Anti-ferroptosis activity against RSL3-induced ferroptosis in human HT-1080 cells assessed as restoration of lipid peroxidation level by BODIPY 581/591 C11 dye based flow cytometry analysis; type: functional, cell-based
HT-1080 [19] = assay: Anti-ferroptosis activity against RSL3-induced ferroptosis in human HT-1080 cells assessed as increase in cell viability at 5 uM incubated for 24 hrs by cell counting kit 8 method; type: functional, cell-based
HT-1080 [20] = assay: Anti-ferroptosis activity against FINO2-induced ferroptosis in human HT-1080 cells assessed as increase in cell viability at 20 uM incubated overnight by cell counting kit 8 method; type: functional, cell-based
Mus musculus [21] = assay: Protection against male acute iron overload C57BL/6 mouse model assessed as reduction in hepatic iron content at 10 mg/kg, ip pretreated with iron sulfate for 8 hrs followed by compound administered for 30 min; type: functional, organism-based
Mus musculus [22] = assay: Anti-ferroptotic activity against acute iron overload in male C57BL/6 mouse model assessed as reduction in […] mRNA expression level in liver at 10 mg/kg, ip pretreated with iron sulfate for 8 hrs followed by compound administered for 30 min by qPCR analysis; type: functional, organism-based
[23] = Toxicity in C57BL/6 mouse assessed as change in AST level in serum at 10 mg/kg, ip pretreated with iron sulfate for 8 hrs followed by compound administered for 30 min by automatic biochemical analyzer; type: organism-based; conditions: in vivo, 30 h
HT-1080 [24] = assay: Anti-ferroptosis activity against FINO2-induced ferroptosis in human HT-1080 cells assessed as reduction in total iron level at 5 uM by live-cell fluorescent imaging; type: functional, cell-based
HT-1080 [25] = assay: Anti-ferroptosis activity against FeSO4/8HQ-induced ferroptosis in human HT-1080 cells assessed as reduction in MDA level at 5 uM; type: functional, cell-based
HT-1080 [26] = assay: Anti-ferroptosis activity against ZnCl2-induced ferroptosis in human HT-1080 cells assessed as increase in cell viability at 5 uM incubated for 24 hrs by cell counting kit 8 method; type: functional, cell-based
HT-1080 [27] = assay: Anti-ferroptosis activity against FeSO4/8HQ-induced ferroptosis in human HT-1080 cells assessed as reduction in total iron level at 5 uM by live-cell fluorescent imaging; type: functional, cell-based
[28] = Toxicity in C57BL/6 mouse assessed as change in ALT level in serum at 10 mg/kg, ip pretreated with iron sulfate for 8 hrs followed by compound administered for 30 min by automatic biochemical analyzer; type: organism-based; conditions: in vivo, 30 h
HT-1080 [29] = assay: Anti-ferroptosis activity against FINO2-induced ferroptosis in human HT-1080 cells assessed as reduction in MDA level at 5 uM; type: functional, cell-based
Mus musculus [30] = assay: Protection against acute iron overload in male C57BL/6 mouse model assessed as reduction in hepatic FTL level at 10 mg/kg, ip pretreated with iron sulfate for 8 hrs followed by compound administered for 30 min by Western blot analysis; type: functional, organism-based
[31] = Toxicity in C57BL/6 mouse assessed as change in LDH level in serum at 10 mg/kg, ip pretreated with iron sulfate for 8 hrs followed by compound administered for 30 min by automatic biochemical analyzer; type: organism-based; conditions: in vivo, 30 h
Mus musculus [32] = assay: Protection against acute iron overload in male C57BL/6 mouse model assessed as reduction in liver iron content at 10 mg/kg, ip pretreated with iron sulfate for 8 hrs followed by compound administered for 30 min by Perls Prussian blue staining; type: functional, organism-based
HT-1080 [33] = assay: Anti-ferroptosis activity against FeCl3/8HQ-induced ferroptosis in human HT-1080 cells assessed as reduction in MDA level at 5 uM; type: functional, cell-based
HT-1080 [34] = assay: Anti-ferroptosis activity against FINO2-induced ferroptosis in human HT-1080 cells assessed as upregulation of PTGS2 mRNA level at 5 uM by qPCR analysis; type: functional, cell-based
HT-1080 [35] = assay: Anti-ferroptosis activity against FINO2-induced ferroptosis in human HT-1080 cells assessed as reduction in Fe2+ oxidation level at 5 uM by colorimetric method; type: functional, cell-based
Mus musculus [36] = assay: Anti-ferroptotic activity against acute iron overload in male C57BL/6 mouse model assessed as reduction in MDA level in liver at 10 mg/kg, ip pretreated with iron sulfate for 8 hrs followed by compound administered for 30 min; type: functional, organism-based
[37] = Toxicity in C57BL/6 mouse assessed as change in CK level in serum at 10 mg/kg, ip pretreated with iron sulfate for 8 hrs followed by compound administered for 30 min by automatic biochemical analyzer; type: organism-based; conditions: in vivo, 30 h
HT-1080 [38] = assay: Anti-ferroptosis activity against MnCl2-induced ferroptosis in human HT-1080 cells assessed as increase in cell viability at 5 uM incubated for 24 hrs by cell counting kit 8 method; type: functional, cell-based
HT-1080 [39] = assay: Anti-ferroptosis activity against FeCl3/8HQ-induced ferroptosis in human HT-1080 cells assessed as reduction in total iron level at 5 uM by live-cell fluorescent imaging; type: functional, cell-based
Mus musculus [40] = assay: Protection against acute iron overload in male C57BL/6 mouse model assessed as reduction in hepatic FTH level at 10 mg/kg, ip pretreated with iron sulfate for 8 hrs followed by compound administered for 30 min by Western blot analysis; type: functional, organism-based
Mus musculus [41] = assay: Protection against acute iron overload in male C57BL/6 mouse model assessed as reduction in spleen iron content at 10 mg/kg, ip pretreated with iron sulfate for 8 hrs followed by compound administered for 30 min by Perls Prussian blue staining; type: functional, organism-based
HT-1080 [42] = assay: Anti-ferroptosis activity against FeCl3/8HQ-induced ferroptosis in human HT-1080 cells assessed as increase in cell viability at 5 uM incubated for 24 hrs by cell counting kit 8 method; type: functional, cell-based
HT-1080 [43] = assay: Anti-ferroptosis activity against FeSO4/8HQ-induced ferroptosis in human HT-1080 cells assessed as reduction in Fe2+ level at 5 uM by FerroOrange staining based live-cell fluorescent imaging; type: functional
HT-1080 [44] = assay: Anti-ferroptosis activity against FeSO4/8HQ-induced ferroptosis in human HT-1080 cells assessed as increase in cell viability at 1 to 10 uM incubated for 24 hrs by cell counting kit 8 method; type: functional, cell-based; conditions: dose 1-10 µM

C/C=C/c1ccc(OC(C)=O)c(OC)c1
Activity (HT-1080 [1]): Active | Activity (HT-1080 [2]): Active | Activity (HT-1080 [3]): Active | Activity (HT-1080 [4]): Active | Activity (HT-1080 [5]): inactive | Activity [6]: inactive | Activity (HT-1080 [7]): Active | Activity (HT-1080 [8]): Active | Activity (HT-1080 [9]): inactive | Activity (HT-1080 [10]): Active | Activity (HT-1080 [11]): Active | Activity (HT-1080 [12]): inactive | Activity (HT-1080 [13]): Active | Activity (HT-1080 [14]): inactive | Activity (HT-1080 [15]): Active; Strong Protection | Activity (HT-1080 [16]): Active | Activity (HT-1080 [17]): Active | Activity (HT-1080 [18]): Active

C=CC(C)(C)c1cc(/C=C/C(=O)c2ccc(O)cc2)c(OC)cc1O
Activity (HT-1080 [1]): Active | Activity (HT-1080 [3]): Active | Activity (HT-1080 [4]): Active | Activity (HT-1080 [5]): inactive | Activity [6]: inactive | Activity (HT-1080 [7]): Active | Activity (HT-1080 [8]): Active | Activity (HT-1080 [9]): inactive | Activity (HT-1080 [10]): Active | Activity (HT-1080 [11]): Active | Activity (HT-1080 [12]): inactive | Activity (HT-1080 [13]): Active | Activity (HT-1080 [14]): inactive | Activity (HT-1080 [15]): Active; Strong Protection | Activity (HT-1080 [16]): Active | Activity (HT-1080 [17]): Active | Activity (HT-1080 [19]): Active | Activity (HT-1080 [18]): Active

COc1cc2c(cc1OC)[C@@H](Cc1ccc(O)c(Oc3cc4c(cc3OC)CCN(C)[C@@H]4Cc3ccc(O)cc3)c1)N(C)CC2
Activity (HT-1080 [20]): inactive

COc1ccc(C[C@@H]2c3cc(Oc4cc(C[C@H]5c6cc(OC)c(OC)cc6CCN5C)ccc4O)c(OC)cc3CCN2C)cc1
Activity (HT-1080 [20]): inactive

COc1ccc(C[C@@H]2c3cc(Oc4cc(C[C@@H]5c6cc(O)c(OC)cc6CCN5C)ccc4O)c(OC)cc3CCN2C)cc1 [ISOLIENSININE]
Activity (HT-1080 [1]): Active | Activity (Mus musculus [21]): Active | Activity (Mus musculus [22]): Active | Activity [23]: Non-toxic | Activity (HT-1080 [3]): Active | Activity (HT-1080 [24]): Active | Activity (HT-1080 [25]): Active | Activity (HT-1080 [26]): inactive | Activity (HT-1080 [4]): Active | Activity (HT-1080 [5]): Active | Activity [6]: inactive | Activity (HT-1080 [7]): Active | Activity (HT-1080 [27]): Active | Activity [28]: Non-toxic | Activity (HT-1080 [8]): Active | Activity (HT-1080 [29]): Active | Activity (Mus musculus [30]): Active | Activity (HT-1080 [9]): Active | Activity [31]: Non-toxic | Activity (HT-1080 [10]): Active | Activity (Mus musculus [32]): Active | Activity (HT-1080 [11]): Active | Activity (HT-1080 [33]): Active | Activity (HT-1080 [12]): Active | Activity (HT-1080 [34]): Active | Activity (HT-1080 [35]): Active | Activity (Mus musculus [36]): Active | Activity (HT-1080 [13]): Active | Activity [37]: Non-toxic | Activity (HT-1080 [38]): inactive | Activity (HT-1080 [39]): Active | Activity (HT-1080 [14]): inactive | Activity (Mus musculus [40]): Active | Activity (Mus musculus [41]): Active | Activity (HT-1080 [15]): Active; Strong Protection | Activity (HT-1080 [16]): Active | Activity (HT-1080 [17]): Active | Activity (HT-1080 [19]): Active | Activity (HT-1080 [42]): inactive | Activity (HT-1080 [43]): Active | Activity (HT-1080 [18]): Active | Activity (HT-1080 [44]): Active
